Calls of active or inactive are those of the source. No cut-off for these calls is given here.
Assays:
[1] = Inhibition of HIV1 env protein assessed as inhibition of env expressing african green monkey BSC1 cell fusion with mouse NIH3T3 cell expressing CXCR4 and Escherichia coli T7 after 2.5 hrs by beta galactosidase report gene assay; conditions: Human immunodeficiency virus 1, NIH3T3, 2.5 h
NIH3T3 = experiment: Inhibition of HIV1 env protein assessed as inhibition of env expressing african green monkey BSC1 cell fusion with mouse NIH3T3 cell expressing CXCR4 and Escherichia coli T7 at 1 ug/ml after 2.5 hrs by beta galactosidase report gene assay; conditions: Human immunodeficiency virus 1

Cn1cc2c3c1C(=O)C(N)=C(Cl)C3=NCC2 [ISOBATZELLINE C]
IC50 [1]: 0.2 µM
Activity (NIH3T3): Active

Cn1cc2c3c1C(=O)C(N)=CC3=[N+](C)CC2 [MAKALUVAMINE H]
IC50 [1]: 5 µM
Activity (NIH3T3): Active

Cn1cc2c3c1C(=O)C(N)=CC3=NCC2 [MAKALUVAMINE A]
IC50 [1]: 5 µM
Activity (NIH3T3): Active
